Series [1] deals with NRAS mutated and BRAF mutated melanoma. The experiment in a line: Efficacy against melanoma. The series is classed as cell-based.
Series [2] is described as follows: Grey hair in naturally aged mice. The series is classed as in vivo. Conditions: 24-month old C57BL/6J mice, 3 doses i.v., 4 weeks after first treatment, vs PBS. The source says: 24-month old C57BL/6J mice were photographed before receiving 3 doses of either PBS or CL04183 (SEQ ID NO: 55) through i.v. injection. 4 weeks after the first treatment the mice were photographed again.

Series [3] is described as follows: Peptide stability in solution. The series is classed as physicochemical. On the procedure:
Both peptides were dissolved in H2O and kept at room temperature. The peptide concentration was determined for the indicated time points.

Series [4] concerns triple negative breast cancer lines. The experiment in a line: MTS cell viability in human breast cancer cell lines. The format is cell-based. Conditions: increasing concentrations, 2 days.
The subject of series [5] is CRC29 colorectal cancer organoid line. The experiment in a line: CRC29 metastasis in liver and lung, human nucleoli staining. To be noted: 3 doses, vs PBS. The format is in vivo, mice. On the procedure:
(§1) Mouse experiments were performed after approval from the Dutch animal ethics committee. For these experiments male NOD.Cg-Prkdc^scid Il2rg^tmlWjl/SzJ/J mice (Charles River) were employed. Human CRC29 colorectal cancer organoids containing firefly luciferase were implanted into the caecum, resulting in the formation of a primary tumor at this site. The implantation was performed under ketamine and dexmedetomidine anaesthesia. In addition, the animals received carpofen 30 min before surgery and the day after. 14 days after transplantation, the mice were sedated using isoflurane and imaged under the BioSpace Imager. Subsequently, The animals were treated with either PBS or with ′5-Fluorouracil (5-FU) at a dose of 50 mg/kg via i.p. injection. The first dose of CL04183 (2.5 mg/kg) was administered via i.v. injection 1 week after 5-FU treatment and this treatment was repeated 2 and 4 days later. 4 weeks after transplantation, the mice were imaged again to determine treatment effect and subsequently sacrificed. All organs were harvested and imaged under the BioSpace Imager again and the luciferase signal was quantified using the M3 vision software.
Liver and lung paraffin sections were rehydrated in decreasing concentrations of ethanol before being washed in TBS and boiled for 20 minutes in 10 mM sodium citrate buffer (PH6) for antigen unmasking. […]

Series [6] has as its system CRC29 colorectal cancer organoids. The experiment in a line: Apoptosis and viability in patient-derived colorectal cancer organoid line CRC29. The series is classed as cell-based, Human. On the procedure: (§2) Organoids were grown at 37° C. and 5% CO2 in a humidified incubator. All organoids were cultured in matrigel (Corning) droplets in advanced DMEM/F12 (Lonza) supplemented with 1% glutamax, 1% Penicillin/Streptomycin, 1% (10 mM) HEPES, 10% Noggin conditioned medium, 2% B-27 (50×; (Thermo/Life Technologies), N-acetylcysteine ((Sigma-Aldrich, 1.25 mM)), A83-01 (Tocris, 500 nM) and SB203580 (Invitrogen/Life Technologies, 3 μM). To perform viability and apoptosis assays, the organoids were passaged through resuspension in ice-cold medium, followed by centrifugation in 15 ml tubes at 4° C. The resulting pellet was trypsinized for 5 minutes at 37° C. to obtain single cells and subsequently washed twice with advanced DMEM/F12 media. These cells were then resuspended in Matrigel and plated in 96-well plates in 5 ul droplets. 100 ul fresh medium was added to the wells 15 minutes later. Peptide and chemotherapy treatment was added to the organoids 2 days after plating.
A Live/dead assay was performed on both larger organoids 3 days after peptide and/or chemotherapy treatment, or on organoids that were treated as single cells and allowed to grow out for 2 weeks before the assay was performed. […] The organoids were then imaged on a Zeiss Cell Observer microscope and the signal was quantified using FIJI. […]

Series [7] concerns CRC29 colorectal cancer organoid line. The experiment in a line: Bioluminescence of luciferase-expressing CRC29 transplanted in the caecum of immunodeficient mice. The series is classed as in vivo. To be noted: 3 doses, imaged two days after last dose, vs PBS. On the procedure: as §1
Series [8] concerns WT colon and tumor progression (TPO) organoids. The experiment in a line: Cell viability of WT colon and tumor progression (TPO) organoids. The series is classed as cell-based. To be noted: increasing concentrations, measured 5 days later. As to the method:
as §2

In another series the test system is RPE1 cells. The experiment in a line: Senescent vs ctrl human RPE1 cells. Conditions: vs FOXO4-DRI (CL03001) within one experiment. The series is classed as cell-based. On the procedure: Human IMR90, WI38 and RPE cells were grown in Dulbecco's Modified Eagle's Medium (DMEM; Lonza) containing 10% FCS and 1% pen/strep at 37° C. with 3.0% 02 and 5.0% CO2. To induce senescence, cells were irradiated with 10Gy ionizing radiation (Gammacell 1000) and were left for a minimum of 10 days to become senescent.
To perform viability and apoptosis assays, cells were split into 96-well plates and treated with peptides 2 days later. Non-senescent and cancer cells were plated 1500 cells/well, while senescent cells were plated at 8.000 cells/well.

The next series deals with CRC29 lung metastases. The experiment in a line: TUNEL assay on CRC29 lung metastases. The format is in vivo, mice. To be noted: vs PBS. As to the method:
as §1
A TUNEL assay was performed on lung metastases to determine apoptosis induction after treatment. […] Images were acquired using a LSM880 confocal microscope (Zeiss) and the percentage of TUNEL-positive cells was analysed using FIJI.

On to AKIEAAILDAFSQNWRKRRRRQRRKKRG [CL04183], for which the efficacy against melanoma result in [1] is “efficacy against NRAS mutated and BRAF mutated melanoma”. For the same sequence, in series [2], the grey hair entry is recorded as “reduces grey hair”. The stability in solution entry in series [3] is given as “superior stability”. In [4], the “sensitivity of breast cancer cell lines (cell viability, MTS)” value is on record as “correlating with CL04183 (SEQ ID NO: 55) sensitivity”. Further, the “colorectal cancer metastasis in liver and lung” value in series [5] is “reduces colorectal cancer metastasis in liver and lung”. The apoptosis induction result in series [6] was “potently induces apoptosis”. Moreover, in series [7], the “luciferase-expressing colorectal cancer cells (bioluminescence)” value is “reduces luciferase-expressing colorectal cancer cells in vivo”. Moreover, the “cell viability, sensitivity of organoids with colorectal cancer associated mutations” value in [8] is on record as “sensitizes to FOXO4-based peptides, dependent on p53”. In addition, the “selectivity and potency in senescent vs ctrl cells” value with RPE1 cells was “superior selectivity and potency”. In addition, the “apoptosis in metastatic cancer cells (TUNEL positive cancer cells)” value in the series with CRC29 lung metastases is on record as “induces apoptosis in metastatic cancer cells in vivo”.

The values are drawn from patent publication US12653862B2, “Anti-senescence compounds and uses thereof” (CLEARA BIOTECH B.V., priority 2020, dated 2026).
